Measured values as given in US8168651B2, “Protein kinase modulators” (Cylene Pharmaceuticals, Inc., priority 2008, dated 2012).
Read-outs that look alike come from different tables or passages of the source.

How the values were obtained:
[1] = tested on: HCT-116 human colorectal carcinoma cells; assay: Cell-proliferation assay using Alamar Blue dye; format: cell-based; settings: Homo sapiens;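 also: cells exposed to compound for about 4 days, then Alamar Blue added and dye fluorescence read after about 4 h, compared with medium-only control wells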
recombinant human PIM1 = recombinant human PIM1 (Homo sapiens (Human), UniProt P11309); assay: PIM-1 kinase activity in cell-free in vitro assay; format: biochemical; settings: for inhibition at 0.5 µM: 500 nM compound, read-out: PIM-1: % inh 500 nM
Sequence of recombinant human PIM1 (P11309 whole entry): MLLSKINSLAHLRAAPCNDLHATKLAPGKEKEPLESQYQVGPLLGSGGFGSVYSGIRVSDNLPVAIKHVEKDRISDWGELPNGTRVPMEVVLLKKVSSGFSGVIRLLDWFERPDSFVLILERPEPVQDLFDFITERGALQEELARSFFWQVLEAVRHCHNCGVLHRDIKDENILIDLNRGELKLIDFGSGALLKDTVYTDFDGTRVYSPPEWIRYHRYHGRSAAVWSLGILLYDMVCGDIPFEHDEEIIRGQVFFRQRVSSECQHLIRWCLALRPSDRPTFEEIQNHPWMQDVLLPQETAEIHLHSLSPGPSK

K-562 [2] = assay: Cell proliferation modulatory activity, K-562; format: cell-based; settings: Homo sapiens, K562
MV-4-11 [3] = assay: Cell proliferation modulatory activity, MV-4-11; format: cell-based; settings: Homo sapiens, MV4-11
recombinant human CK2 = recombinant human CK2 (Homo sapiens (Human), UniProt P68400); assay: CK2 assay (cell-free, 33P-ATP filter plate); format: biochemical; settings: cell-free; for inhibition at 0.5 µM: 500 nM compound, read-out: CK2: % inh 500 nM
Sequence of recombinant human CK2 (P68400 whole entry): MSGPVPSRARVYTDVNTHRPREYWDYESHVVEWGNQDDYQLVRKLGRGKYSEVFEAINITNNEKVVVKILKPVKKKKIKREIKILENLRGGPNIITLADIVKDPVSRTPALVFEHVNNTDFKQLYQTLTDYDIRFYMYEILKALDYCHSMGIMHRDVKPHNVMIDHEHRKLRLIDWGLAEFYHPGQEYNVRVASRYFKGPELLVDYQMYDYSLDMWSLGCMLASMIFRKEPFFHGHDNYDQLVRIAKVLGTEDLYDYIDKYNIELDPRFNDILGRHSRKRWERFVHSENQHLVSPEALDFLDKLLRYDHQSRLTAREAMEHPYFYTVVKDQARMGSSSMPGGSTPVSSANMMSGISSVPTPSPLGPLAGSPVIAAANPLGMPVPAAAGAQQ
Sequence of recombinant human CK2 (P67870 whole entry partner): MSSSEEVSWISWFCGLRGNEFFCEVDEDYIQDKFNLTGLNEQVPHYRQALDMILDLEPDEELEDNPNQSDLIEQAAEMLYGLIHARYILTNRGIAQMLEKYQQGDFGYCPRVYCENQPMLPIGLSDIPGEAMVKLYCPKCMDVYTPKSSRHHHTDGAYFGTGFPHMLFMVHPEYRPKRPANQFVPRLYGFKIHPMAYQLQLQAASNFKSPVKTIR

Flt3 = Flt3 (Homo sapiens (Human), UniProt P36888); assay: FLT-3 kinase activity in cell free in vitro assay; format: biochemical; settings: cell-free; read-out: FLT-3
Sequence of Flt3 (P36888 27-993): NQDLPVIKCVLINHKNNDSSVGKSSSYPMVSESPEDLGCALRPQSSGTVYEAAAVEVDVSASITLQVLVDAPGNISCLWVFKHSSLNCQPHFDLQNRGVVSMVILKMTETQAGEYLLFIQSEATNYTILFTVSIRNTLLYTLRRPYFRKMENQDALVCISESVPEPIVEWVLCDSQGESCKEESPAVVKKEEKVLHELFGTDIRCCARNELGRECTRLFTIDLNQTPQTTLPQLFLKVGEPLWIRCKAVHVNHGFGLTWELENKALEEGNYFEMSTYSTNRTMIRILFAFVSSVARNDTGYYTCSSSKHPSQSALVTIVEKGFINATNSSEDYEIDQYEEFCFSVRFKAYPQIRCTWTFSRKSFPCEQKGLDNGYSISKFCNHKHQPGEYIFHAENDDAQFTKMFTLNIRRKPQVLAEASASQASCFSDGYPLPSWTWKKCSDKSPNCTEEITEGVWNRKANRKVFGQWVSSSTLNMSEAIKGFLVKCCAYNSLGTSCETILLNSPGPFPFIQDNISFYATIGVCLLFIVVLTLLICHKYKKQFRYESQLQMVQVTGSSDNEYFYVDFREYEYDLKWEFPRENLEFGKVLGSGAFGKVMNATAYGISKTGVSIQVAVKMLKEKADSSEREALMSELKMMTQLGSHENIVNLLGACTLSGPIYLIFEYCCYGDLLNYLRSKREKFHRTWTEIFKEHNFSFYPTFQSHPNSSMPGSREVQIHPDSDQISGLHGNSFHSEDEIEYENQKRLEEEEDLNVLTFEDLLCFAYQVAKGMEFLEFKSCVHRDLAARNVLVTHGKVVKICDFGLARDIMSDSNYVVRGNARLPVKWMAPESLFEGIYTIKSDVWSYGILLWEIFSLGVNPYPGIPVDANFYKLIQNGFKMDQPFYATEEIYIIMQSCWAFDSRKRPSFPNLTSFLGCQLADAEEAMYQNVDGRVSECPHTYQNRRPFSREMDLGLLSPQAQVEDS

[4] = tested on: MiaPaca human pancreatic carcinoma cells; assay: Cell-proliferation assay using Alamar Blue dye; format: cell-based; settings: MIA PaCa-2, Table 45
Experimental: A representative cell-proliferation assay protocol using Alamar Blue dye (stored at 4° C., use 20 ul per well) is described hereafter.
• a. Split and trypsinize cells. • b. Count cells using hemocytometer. • c. Plate 4,000-5,000 cells per well in 100 μl of medium and seed into a 96-well plate according to the following plate layout. Add cell culture medium only to wells B10 to B12. Wells B1 to B9 have cells but no compound added.
• d. Add 100 μl of 2× drug dilution to each well in a concentration shown in the plate layout above. At the same time, add 100 μl of media into the control wells (wells B10 to B12). Total volume is 200 μl/well. • e. Incubate four (4) days at 37° C., 5% CO2 in a humidified incubator. • f. Add 20 μl Alamar Blue reagent to each well. • g. Incubate for four (4) hours at 37° C., 5% CO2 in a humidified incubator. • h. Record fluorescence at an excitation wavelength of 544 nm and emission wavelength of 590 nm using a microplate reader.
In the assays, cells are cultured with a test compound for approximately four days, the dye then is added to the cells and fluorescence of […] dye is detected after approximately four hours. Different types of cells can be utilized in the assays (e.g., HCT-116 human colorectal carcinoma cells, PC-3 human prostatic cancer cells and MiaPaca human pancreatic carcinoma cells). Anti-proliferative effects of representative compounds are provided hereafter

K-562 [5] = assay: Cell proliferation modulatory activity, K-562; format: cell-based; settings: Homo sapiens, K562; Table 45; read-out: K-562 IC50
MV-4-11 [6] = assay: Cell proliferation modulatory activity, MV-4-11; format: cell-based; settings: Homo sapiens, MV4-11; Table 45; read-out: MV-4-11 IC50
PIM2 = PIM2 (Homo sapiens (Human), UniProt Q9P1W9); assay: PIM2 IC50; format: biochemical; settings: Table 45
Sequence of PIM2 (Q9P1W9 whole entry): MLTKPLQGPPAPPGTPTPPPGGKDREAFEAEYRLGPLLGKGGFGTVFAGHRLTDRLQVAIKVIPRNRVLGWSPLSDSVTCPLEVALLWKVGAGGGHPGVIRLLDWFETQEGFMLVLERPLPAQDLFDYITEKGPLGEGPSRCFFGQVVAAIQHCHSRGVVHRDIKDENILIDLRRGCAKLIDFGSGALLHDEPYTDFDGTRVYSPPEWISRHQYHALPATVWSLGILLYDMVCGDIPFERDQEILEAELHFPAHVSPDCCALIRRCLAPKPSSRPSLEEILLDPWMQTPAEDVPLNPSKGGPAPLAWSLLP

phosphoBAD ser 112 = phosphoBAD ser 112 IC50; format: cell-based; settings: read-out: phosphoBAD ser 112 IC50; Table 45
MDAMB231 = MDAMB231 IC50; format: cell-based; settings: Homo sapiens, MDA-MB-231; Table 45
[7] = HCT-116, read-out: HCT-116 (uM), cell proliferation modulatory activity, HCT-116, first column
[8] = HCT-116, read-out: HCT-116 (uM), cell proliferation modulatory activity, HCT-116, second column
[9] = HCT-116, HCT-116, second column, read-out: HCT-116 (uM), cell proliferation modulatory activity

Compound	inhibition at 0.5 µM (recombinant human PIM1; cell-free) [%]	IC50 (K-562 [2]) [µM]	IC50 (MV-4-11 [3]) [µM]	IC50 (recombinant human PIM1; cell-free) [nM]	IC50 [4] [nM]	IC50 (recombinant human PIM1; Table 45) [nM]	IC50 (K-562 [5]) [nM]	IC50 (MV-4-11 [6]) [nM]	IC50 (PIM2) [nM]	other results
CN(C)CCNc1nc2cc(C(=O)O)ccc2c2sccc12	83.4	> 10	> 10	–	–	–	–	–	–	IC50 [1, 7]: 10 µM
O=C(O)c1ccc2c(c1)nc(NCCN1CCCC1)c1ccsc12	67.2	> 10	> 10	244	–	–	–	–	–	IC50 [1, 7]: 10 µM
c1ccc(Nc2nc3cc(-c4nnn[nH]4)ccc3c3sccc23)cc1	70.9	> 10	1.09	262	–	–	–	–	–	IC50 [1, 7]: 10 µM
CN(c1ccccc1)c1nc2cc(C(=O)O)ccc2c2sccc12	61.4	> 10	> 10	404	–	–	–	–	–	IC50 [1, 7]: 10 µM
O=C(O)c1ccc2c(c1)nc(Nc1ccc(F)c(Cl)c1)c1ccsc12	80.8	> 10	0.455	257	–	–	–	–	–	IC50 [1, 7]: 10 µM
O=C(O)c1ccc2c(c1)nc(Nc1ccc(Cl)cc1)c1ccsc12	69.1	> 10	0.258	289	–	–	–	–	–	IC50 [1, 7]: 10 µM
CN(C)CCNc1nc2cc(-c3nnn[nH]3)ccc2c2sccc12	92.9	> 10	> 10	47	–	–	–	–	–	IC50 [1, 7]: 10 µM; IC50 [1, 8]: > 10 µM
Fc1ccc(Nc2nc3cc(-c4nnn[nH]4)ccc3c3sccc23)cc1	74.3	> 10	4.53	174	–	–	–	–	–	IC50 [1, 7]: 10 µM
FC(F)(F)c1cccc(Nc2nc3cc(-c4nnn[nH]4)ccc3c3sccc23)c1	59	> 10	0.093	205	–	–	–	–	–	IC50 (recombinant human CK2; 15 um ATP, read-out: CK2 (15 um ATP) IC50): 458 nM; IC50 (recombinant human CK2; 20 um ATP, read-out: CK2 (20 um ATP) IC50): 406 nM; IC50 [1, 9]: > 10 µM; IC50 (Flt3): > 400 nM
NS(=O)(=O)c1cccc(Nc2nc3cc(-c4nnn[nH]4)ccc3c3sccc23)c1	83.9	> 10	> 10	88	–	–	–	–	–	IC50 [1, 8]: 10 µM
Brc1cccc(Nc2nc3cc(-c4nnn[nH]4)ccc3c3sccc23)c1	65.9	> 10	0.549	220	–	–	–	–	–	IC50 [1, 8]: > 10 µM
Fc1cccc(Nc2nc3cc(-c4nnn[nH]4)ccc3c3sccc23)c1	76.6	> 10	0.525	138	–	–	–	–	–	IC50 (Flt3): > 400 nM
CN(C)CCNC(=O)Cc1cccc(Nc2nc3cc(C(=O)O)ccc3c3sccc23)c1	69.2	> 10	> 10	283	–	–	–	–	–	inhibition at 0.5 µM (recombinant human CK2): 53.3%; IC50 [1, 9]: > 10 µM
CNS(=O)(=O)c1cccc(Nc2nc3cc(C(=O)O)ccc3c3sccc23)c1	82.8	> 10	> 10	159	–	–	–	–	–	IC50 [1, 8]: > 10 µM
O=C(O)c1ccc2c(c1)nc(Nc1cccc(C(F)(F)F)c1)c1ccsc12	74.7	> 10	> 10	197	–	–	–	–	–	IC50 [1, 8]: > 10 µM
O=C(O)c1ccc2c(c1)nc(Nc1ccc(F)c(F)c1)c1ccsc12	85.7	> 10	0.658	239	–	–	–	–	–	IC50 [1, 8]: 0.832 µM
Clc1cccc(Nc2nc3cc(-c4nnn[nH]4)ccc3c3cnccc23)c1	48.6	8.2	0.032	863	–	–	–	–	–	IC50 (Flt3): 305 nM
O=C(O)c1ccc2c(c1)nc(Nc1cc(F)cc(Cl)c1)c1ccsc12	90	> 10	0.745	299	–	–	–	–	–	IC50 [1, 8]: > 10 µM
O=C(O)c1ccc2c(c1)nc(Nc1cc(F)cc(F)c1)c1ccncc12	92.4	3.26	> 10	111	–	–	–	–	–	IC50 [1, 8]: 4.33 µM

Compound	inhibition at 0.5 µM (recombinant human PIM1; cell-free) [%]	IC50 (K-562 [2]) [µM]	IC50 (MV-4-11 [3]) [µM]	IC50 (recombinant human PIM1; cell-free) [nM]	IC50 [4] [nM]	IC50 (recombinant human PIM1; Table 45) [nM]	IC50 (K-562 [5]) [nM]	IC50 (MV-4-11 [6]) [nM]	IC50 (PIM2) [nM]	other results
N#Cc1cc(F)cc(Nc2nc3cc(C(=O)O)ccc3c3sccc23)c1	87	> 10	1.46	252	–	–	–	–	–	IC50 [1, 8]: > 10 µM
N#Cc1cccc(Nc2nc3cc(C(=O)O)ccc3c3cnccc23)c1	92.4	9.15	> 10	58	–	–	–	–	–	IC50 (Flt3): 12 nM
Fc1cc(F)cc(Nc2nc3cc(-c4nnn[nH]4)ccc3c3sccc23)c1	86.9	> 10	2.2	414	–	–	–	–	–	IC50 [1, 8]: > 10 µM
COC(=O)c1ccc2c(c1)nc(Nc1cccc(Cl)c1)c1ccncc12	7.83	0.217	0.161	–	–	–	–	–	–	inhibition at 0.5 µM (recombinant human CK2): 13.4%; IC50 (Flt3): > 400 nM
Fc1ccc(Nc2nc3c(-c4nnc[nH]4)cccc3c3cnccc23)c(Cl)c1	–	–	–	–	> 10000	< 100	< 500	< 500	< 100	IC50 (phosphoBAD ser 112): < 500 nM
COc1ccc(Nc2nc3c(-c4nc[nH]n4)cccc3c3cnccc23)cc1	–	–	–	–	< 500	< 100	< 500	< 100	< 100	IC50 (phosphoBAD ser 112): < 100 nM
Cc1ccccc1Nc1nc2c(-c3nnc[nH]3)cccc2c2cnccc12	–	–	–	–	< 1000	–	< 1000	–	–	IC50 (MDAMB231): > 10000 nM
Fc1ccccc1Nc1nc2c(-c3nnc[nH]3)cccc2c2cnccc12	–	–	–	–	< 1000	< 100	< 500	< 100	< 100	IC50 (phosphoBAD ser 112): < 5000 nM
Cc1ccc(F)cc1Nc1nc2c(-c3nnc[nH]3)cccc2c2cnccc12	–	–	–	–	–	–	> 10000	–	< 100	IC50 (MDAMB231): > 10000 nM
COc1ccccc1Nc1nc2c(-c3nnc[nH]3)cccc2c2cnccc12	–	–	–	–	–	< 100	< 5000	< 100	< 1000	IC50 (phosphoBAD ser 112): < 100 nM; IC50 (MDAMB231): < 5000 nM
Clc1cccc(Nc2nc3c(-c4nc[nH]n4)cccc3c3ccncc23)c1	–	–	–	–	> 10000	< 100	> 10000	> 10000	< 500	IC50 (MDAMB231): > 10000 nM
N#Cc1cccc(Nc2nc3c(-c4nc[nH]n4)cccc3c3cnccc23)c1	–	–	–	–	> 10000	< 100	> 10000	< 100	> 1100	IC50 (phosphoBAD ser 112): < 5000 nM
CN(c1ccccc1Cl)c1nc2c(-c3nnc[nH]3)cccc2c2cnccc12	–	–	–	–	–	< 100	< 5000	< 100	< 1000	IC50 (phosphoBAD ser 112): < 5000 nM; IC50 (MDAMB231): > 10000 nM
c1cc(-c2nc[nH]n2)c2nc(NCC3CC3)c3ccncc3c2c1	–	–	–	–	< 10000	< 100	> 10000	< 100	< 500	IC50 (phosphoBAD ser 112): < 100 nM
Fc1cccc(Nc2nc3c(-c4nnc[nH]4)cccc3c3cnccc23)c1	–	–	–	–	< 1000	< 100	–	< 500	–	IC50 (phosphoBAD ser 112): < 500 nM
CN(c1ccc(Cl)cc1)c1nc2c(-c3nc[nH]n3)cccc2c2cnccc12	–	–	–	–	< 5000	< 100	< 500	< 1000	< 5000	IC50 (MDAMB231): > 10000 nM
FC(F)(F)c1cccc(Nc2nc3c(-c4nnc[nH]4)cccc3c3cnccc23)c1	–	–	–	–	< 5000	< 500	< 5000	< 500	> 1100	IC50 (phosphoBAD ser 112): < 1000 nM
NC(=O)c1cccc2c1nc(Nc1cccc(Cl)c1)c1cnccc12	–	–	–	–	> 10000	< 500	> 10000	> 10000	–	IC50 (MDAMB231): > 10000 nM
Clc1ccccc1Nc1nc2c(-c3nnc[nH]3)cccc2c2cnccc12 [drawing 2209]	–	–	–	–	< 500	–	< 5000	–	< 100	IC50 (MDAMB231): < 500 nM
